Test results taken from PubChem BioAssay (NCI).
Where “and” joins values, the source holds several entries; their conditions need not be identical. Equal values may be shown once.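 Five compound concentrations were applied to cells in 96-well plates for 48 hours; endpoints were derived by simple linear interpolation of the resulting dose-response curve. At the GI50, growth is halved. At the TGI there is no net growth.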

How the values were obtained:
Experiment in all cases: DTP human tumour cell line panel, 48 h
MDA-MB-231 breast = tested on: MDA-MB-231 breast
A498 renal = tested on: A498 renal
786-0 renal = tested on: 786-0 renal
SF-539 CNS = tested on: SF-539 CNS
LOX IMVI melanoma = tested on: LOX IMVI melanoma
RPMI-8226 leukemia = tested on: RPMI-8226 leukemia
COLO 205 colon = tested on: COLO 205 colon
RXF 393 renal = tested on: RXF 393 renal
SR leukemia = tested on: SR leukemia
MOLT-4 leukemia = tested on: MOLT-4 leukemia
SK-MEL-28 melanoma = tested on: SK-MEL-28 melanoma
IGROV1 ovarian = tested on: IGROV1 ovarian

Row | Structure (SMILES) | TGI (MDA-MB-231 breast) | TGI (A498 renal) | TGI (786-0 renal) | TGI (SF-539 CNS) | TGI (LOX IMVI melanoma) | TGI (RPMI-8226 leukemia) | TGI (COLO 205 colon) | TGI (RXF 393 renal) | TGI (SR leukemia) | TGI (MOLT-4 leukemia) | TGI (SK-MEL-28 melanoma) | TGI (IGROV1 ovarian) | GI50 (A498 renal) | GI50 (RPMI-8226 leukemia) | GI50 (RXF 393 renal) | GI50 (MOLT-4 leukemia) | GI50 (SK-MEL-28 melanoma)
1 | Cc1ccc(C(C)C)c(OCC(=O)N/N=C/c2c[nH]c3ccc(Br)cc23)c1 | 9.89 µM | 15.5 µM | 12.6 µM | 4 µM | 16.4 µM | 7.32 µM | 3.55 µM | 3.42 µM | 4.97 µM | 14.2 µM | 21.8 µM | 13.1 µM | – | – | – | – | –
2 | O=C1C(c2c(O)[nH]c3ccc(Cl)cc23)=Nc2ccccc21 | 6.9 µM | 13.1 µM | 3.9 µM | 17.9 µM | > 79.7 µM | > 100 µM | > 100 µM | 7.11 µM | > 100 µM | > 100 µM | > 100 µM | 19.3 µM | – | – | – | – | –
3 | Cc1cccc2c1Sc1ccccc1C2NC(=O)CN(C)C (stereo not given) | – | – | – | > 100 µM | > 100 µM | > 100 µM | > 100 µM | > 100 µM | > 100 µM | > 100 µM | > 100 µM | > 100 µM | – | – | – | – | –
4 | CN(C)c1cccc(OC(=O)NCCCl)c1 | – | 93.6 µM and > 100 µM | – | > 100 µM | > 100 µM | > 100 µM | > 100 µM | > 100 µM | – | > 100 µM | > 100 µM | > 100 µM | 13.9 µM | > 100 µM | > 100 µM | – | –
5 | O=C(Sc1n[nH]c(=O)[nH]c1=O)c1cccc2nc3ccccc3nc12 | > 100 µM | > 100 µM | > 100 µM | > 100 µM | > 100 µM | > 100 µM | 5.76 µM | > 100 µM | > 100 µM | > 100 µM | 90.9 µM | > 100 µM | – | – | – | – | –
6 | CSCC(CO)NC(=O)/C=C/c1c(C)[nH]c(=O)[nH]c1=O (stereo not given) | – | > 875 µM | – | > 875 µM | > 875 µM | > 875 µM | > 775 µM | > 875 µM | – | > 875 µM | > 875 µM | > 875 µM | – | – | – | – | –
7 | O=S(O)CCCSSSCCCS(=O)O | – | > 100 µM | – | > 100 µM | > 100 µM | – | – | > 100 µM | > 100 µM | > 100 µM | > 100 µM | – | – | – | – | – | –
8 | N#C/C(=C\c1ccc([N+](=O)[O-])o1)c1n[nH]c(Cc2ccccc2)n1 | 5 µM | 14.6 µM | 3.85 µM | 5.78 µM | 3.85 µM | 1.4 µM | 2.74 µM | 2.76 µM | – | > 100 µM | 4.09 µM | 3.11 µM | – | – | – | – | –
9 | c1csc(-c2ccc(CNc3c4ccccc4nc4ccccc34)cc2)c1 | – | 2.52 µM | – | – | – | 4.8 µM | – | 2.73 µM | – | 3.74 µM | 3.28 µM | – | 1.22 µM | 1.85 µM | 1.25 µM | 1.32 µM | 1.69 µM
10 | NNC(=O)c1cc([N+](=O)[O-])ccc1NC(=O)C12CC3CC(CC(C3)C1)C2 | 56.5 µM | – | > 100 µM | 50.1 µM | 20.1 µM | 35.8 µM | 64.2 µM | 42.2 µM | 55.6 µM | > 100 µM | – | 8.53 µM | – | – | – | – | –
11 | CC(=O)OC1CC(OC2C(O)CC(OC3C(O)CC(OC4CCC5(C)C(CCC6C5CCC5(C)C(C7=CC(=O)OC7)CCC65O)C4)OC3C)OC2C)OC(C)C1OC1OC(CO)C(O)C(O)C1O (stereo not given) | 2.98 µM | 0.131 µM | 0.0598 µM | 0.0352 µM | 0.0685 µM | 7.43 µM | 0.168 µM | 0.101 µM | – | > 100 µM | 0.592 µM | 0.289 µM | – | – | – | – | –
